Assay results: PMC10856618, “Research on the Interaction Mechanism and Structural Changes in Human Serum Albumin with Hispidin Using Spectroscopy and Molecular Docking” (Molecules, 2024)

Biological target: T1, human serum albumin (HSA) (Homo sapiens, UniProt P02768)
T1 construct: gene ALB; commercial HSA (Solarbio), mature plasma protein, 585 residues, 66,500 Da
Assay: intrinsic fluorescence quenching titration (ex […] nm)
Type: binding
Conditions: 298 K, pH 7.4 Tris-HCl, 0.1 mol/L NaCl, 5 µmol/L HSA; n = 1.04; double-log; mainly site I (subdomain IIA)

T1 sequence (P02768 25-609): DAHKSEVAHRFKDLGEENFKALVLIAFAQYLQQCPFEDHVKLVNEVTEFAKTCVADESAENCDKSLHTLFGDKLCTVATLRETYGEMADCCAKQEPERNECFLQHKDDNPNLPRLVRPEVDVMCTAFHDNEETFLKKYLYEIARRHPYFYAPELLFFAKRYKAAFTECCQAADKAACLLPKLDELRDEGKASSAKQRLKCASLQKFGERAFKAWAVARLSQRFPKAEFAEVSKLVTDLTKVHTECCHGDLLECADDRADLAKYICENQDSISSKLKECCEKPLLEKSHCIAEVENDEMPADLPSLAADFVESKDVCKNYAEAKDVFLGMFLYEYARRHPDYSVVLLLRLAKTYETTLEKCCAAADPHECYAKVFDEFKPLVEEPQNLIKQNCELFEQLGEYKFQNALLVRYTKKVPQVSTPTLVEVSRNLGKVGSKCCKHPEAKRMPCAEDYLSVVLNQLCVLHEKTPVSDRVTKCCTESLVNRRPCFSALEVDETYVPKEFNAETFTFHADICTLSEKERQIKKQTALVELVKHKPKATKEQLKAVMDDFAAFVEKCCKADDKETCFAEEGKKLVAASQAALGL

Ka (10^5 L/mol): 1.03 × 10^5 L/mol
Structure (SMILES): O=c1cc(O)cc(/C=C/c2ccc(O)c(O)c2)o1 [hispidin]
